Laboratory results: patent US11219898B2, “Molecular separation by diffusion using an EWOD device” (Sharp Life Science (EU) Limited, priority 2019, dated 2022)

Test: Diffusion of fluorescein or calcein through a droplet interface bilayer in an AM-EWOD device
Type: physicochemical
Experimental: An investigation of the transport of aqueous phase elements between droplets suspended in a non-aqueous supporting medium is conducted. Phospholipid stabilized water in oil droplets are dispensed within an AM-EWOD device. Such droplets are used to produce droplet interface bilayers (DIBs) by the bringing together of individual droplets within the AM-EWOD device. DIBs are used to study diffusion of a solute across the bilayer membrane, as well as to study active transport through pores or ion channels formed in the DIB. In a first experiment, diffusion of fluorescein or calcein through a bilayer is investigated. Under conditions of neutral pH, calcein, a derivative of fluorescein, is generally more polar than fluorescein. […] Thus, fluorescein may more readily diffuse through a bilayer, whereas calcein may not. Three populations of droplets are dispensed within an AM-EWOD device. A first population contains buffer, a second population contains fluorescein at 100 μM concentration, and a third population contains calcein at 100 μM concentration. Droplets containing buffer are brought into contact respectively with droplets containing fluorescein or calcein, under control of the AM-EWOD device. Fluorescence intensity is determined at time t0, t1 (30 minutes) and t2 (60 minutes), with excitation wavelength 494 nm and emission wavelength 515 nm.

Fluorescence from the buffer containing droplet after DIB formation (after 60 minutes, 100 μM dye droplet, excitation 494 nm, emission 515 nm): no detectable fluorescence
Diffusion across the bilayer (summary of results): not
SMILES: O=C(O)CN(CC(=O)O)Cc1cc2c(cc1O)Oc1cc(O)c(CN(CC(=O)O)CC(=O)O)cc1C21OC(=O)c2ccccc21 [calcein]
